We go through 3 compounds from patent publication US20020183332A1, “USE OF CYAMEMAZINE IN THE TREATMENT OF ABRUPT BENZODIAZEPHINE WITHDRAWAL” (priority 1999, published 2002).

The structures appear in SMILES notation.

The subject of assay [1] is alcohol uptake in rats. The following applies: NAASILA et al. 1998; cited from earlier work.
For assay [2], the system named is patients treated with benzodiazepines for 3 months or more and requiring benzodiazepine withdrawal. The assay is described as follows: randomized double-blind clinical trial: abrupt benzodiazepine withdrawal with cyamemazine substitution versus gradual withdrawal with bromazepam. Format: in vivo. Particulars: for patients in whom the withdrawal is still a success: after 6 months; for patients in whom the treatment is successful: after 6 weeks of study, benzodiazepine withdrawal, 168 patients.

In assay [3] the test system is benzodiazepine withdrawal syndrome. Particulars: LADER et al. 1987, SCHWEIZER et al. 1998; cited from earlier work.

For `CC(CN(C)C)CN1c2ccccc2Sc2ccc(C#N)cc21` (stereo not shown) [cyamemazine], the “action on alcohol uptake” value in assay [1] is reported as “decrease of alcohol uptake”. For the same compound, the “maximum amplitude of the anxiety rebound” value in assay [2] (HARS scale (HAMILTON anxiety scale), cyamemazine group versus bromazepam group) was “no significant difference”. For the same compound, the “frequency of occurrence of a withdrawal syndrome” value in assay [2] (RICKELS withdrawal scale, cyamemazine group versus bromazepam group) was “no significant difference”. In addition, in assay [2] (ZUNG anxiety scale, cyamemazine group versus bromazepam group), the “maximum amplitude of the anxiety rebound” value is “no significant difference”. For the same compound, in assay [2], the “patients in whom the withdrawal is still a success” value was 90% and the “patients in whom the treatment is successful” value was found to be 95%. In addition, the “percentage of patients exhibiting an anxiety rebound” value in assay [2] (cyamemazine group versus bromazepam group) is on record as “no significant difference”.

On to `O=C1CC2(CCCC2)CC(=O)N1CCCCN1CCN(c2ncccn2)CC1` [buspirone], for which the “effect on the withdrawal syndrome” value in assay [3] is “not shown any significant effect”.

Consider `O=C1CN=C(c2ccccn2)c2cc(Br)ccc2N1` [bromazepam], for which, in assay [2], the “patients in whom the withdrawal is still a success” value came to 75% and the “patients in whom the treatment is successful” value came to 85%.
